In one experiment the test system is MCF7-G11-TR5. The conditions noted are these: 24 h.
For another experiment, the system named is MCF7. Conditions: 24 h.
In a further experiment the test system is MDA-MB-231. Conditions: 24 h.
The subject of another experiment is ZR-75-1. Conditions: 24 h.
The test system of a further experiment is T47D. Conditions: 24 h.
In another experiment the test system is SKBR3. Conditions: 24 h.
In the next experiment the test system is MCF7-G11-TR1. Conditions: 24 h.
A further experiment concerns MDA-MB-468. Conditions: 24 h.
For a further experiment, the system named is MCF-10a. The conditions noted are these: 24 h.
The test system of the next experiment is PBMCs. Conditions: 24 h.
The test system of experiment [1] is recombinant BST-2 (rBST-2). In words: UV absorbance (230 nm) centrifugal filter binding assay. The conditions noted are these: 2 mg/mL B18L, 1 mg/mL rBST-2, 37 °C 45 min, 3000 NMWL filter, 13,000 rpm 1 h, UV 230 nm. On the procedure: To validate the MD simulation data, we used UV absorbance based assay to assess the binding affinity of B18L to BST-2 (B18L•BST-2). Following incubation of B18L with rBST-2 or controls (B18L alone and rBST-2 alone) at 37 °C for 45 min, each compound or the B18L•BST-2 mixture was placed in centrifugal filters and spun at 13,000 rpm for 1 h (Figure 2I). Absorbance of compounds (i) prior to addition to the filter (input), (ii) on the apical side of the filter (retained), (iii) in the collection tube (flow through) were obtained and converted to compound concentration using the standard curves (Figure 2J).
B18L (MW = 1.683 kDa), the rBST-2 (MW = 5.832 kDa) and the mixture of B18L and rBST-2 (B18L•BST-2) were titrated with UV spectroscopy at 230 nm to obtain the standard curve. 2 mg/mL of B18L and 1 mg/mL of rBST-2 were preincubated at 37 °C for 45 min. 200 μL mixture was then subjected to the ultracentrifuge tube with 3000 NMWL filter and centrifuged at 13,000 rpm for 1 h. Absorbance of the compounds i) before spin designated as input, ii) compounds left on the apical side of the membrane designated as retained and iii) compounds in the basal side of the tube designated as the flow through were measured with UV spectroscopy. The standard curve was used to extrapolate protein concentrations from the absorbance measurements.

Read-outs that look alike come from different tables or passages of the source. Residues, ends and D or L forms follow the SMILES beside them.

Procedure for MCF-10a: (§1) Cells were plated at 5000 cells/well (cancer cells) or 10,000 cells/well (PBMCs) in a 96-well plate and allowed to attach for 24 h. Cells were then treated with various concentrations of compounds for the times indicated in the different figures. At each time point, the viability of cells was measured using MTT assay. In brief, each well was treated with 20 µL of MTT reagent (5 mg/mL in 1x DPBS) and incubated at 37 °C for 3 h. After 3 h, 100 µL of MTT solvent (90% Isopropanol, 10% Triton X-and 0.4% 1M HCl) was added to each well and the plate was covered from light while shaking for 20 min. The absorbance of solubilized MTT reagent was measured using spectrophotometer at 590 nm. In some experiments with PBMCs, the ATP assay was used to assess cell viability by following manufacture’s instruction. […] Cells were then incubated at 37 °C for the indicated time points on the figure and then treated with equivalent volume of CellTiter-Glo reagent. The plate was rocked for 10 min and luminescence intensity was read using spectrophotometer.
Procedure for MCF7-G11-TR1: as §1
Procedure for MCF7-G11-TR5: as §1
Procedure for MDA-MB-231: as §1
Procedure for MDA-MB-468: as §1
Procedure for PBMCs: as §1
Procedure for SKBR3: as §1
Procedure for T47D: as §1
Procedure for ZR-75-1: as §1

Take `CC[C@H](C)[C@H](NC(=O)CN)C(=O)NCC(=O)N[C@@H](CCCCN)C(=O)N[C@@H](C)C(=O)N[C@H](C(=O)N[C@@H](C)C(=O)N[C@@H](CCCCN)C(=O)N[C@@H](C)C(=O)N[C@H](C(=O)N[C@@H](C)C(=O)N[C@@H](CS)C(=O)N[C@H](C(=O)N[C@@H](C)C(=O)N[C@@H](CCCCN)C(=O)N[C@@H](C)C(=O)N[C@H](C(=O)N[C@@H](C)C(=O)O)[C@@H](C)CC)[C@@H](C)CC)[C@@H](C)CC)[C@@H](C)CC` [B18I] (H-GIGKAIAKAIACIAKAIA-OH): the half-maximal inhibitory concentration (IC50) with MCF7-G11-TR5 was 16.1 ± 4.9 µM; with MCF7, 16 ± 1.6 µM; in the experiment with MDA-MB-231, 18.6 ± 2.4 µM; with ZR-75-1 it was 10.1 ± 1.8 µM; in the experiment with T47D, above 148 µM; in the experiment on SKBR3, 18.1 ± 4.7 µM. The IC50 with MCF7-G11-TR1 came to 10.8 ± 2 µM; in the experiment with MDA-MB-468 it was 16.6 ± 1.5 µM.
Take `CC(C)C[C@H](NC(=O)[C@H](C)NC(=O)[C@H](CCCCN)NC(=O)[C@H](C)NC(=O)[C@H](CC(C)C)NC(=O)[C@H](CS)NC(=O)[C@H](C)NC(=O)[C@H](CC(C)C)NC(=O)[C@H](C)NC(=O)[C@H](CCCCN)NC(=O)[C@H](C)NC(=O)[C@H](CCCCN)NC(=O)[C@H](C)NC(=O)[C@H](CCCCN)NC(=O)[C@H](CCC(N)=O)NC(=O)[C@H](Cc1ccccc1)NC(=O)CN)C(=O)N[C@@H](C)C(=O)O` [B18KA] (H-GFQKAKAKALACLAKALA-OH): the IC50 was found to be 56.4 ± 5 µM in the experiment with MCF7-G11-TR5; 61.8 ± 3.9 µM with MCF7; 83.7 ± 20.1 µM in the experiment with MDA-MB-231; 58.9 ± 2 µM with ZR-75-1; 78.5 ± 20.9 µM with T47D; 43.5 ± 11.5 µM in the experiment with SKBR3. In addition, the IC50 with MCF7-G11-TR1 worked out at 61.8 ± 5.1 µM; with MDA-MB-468 it was 136 ± 9.3 µM.
As for `CSCC[C@H](NC(=O)[C@@H](NC(=O)[C@@H](NC(=O)[C@H](Cc1c[nH]cn1)NC(=O)[C@H](CC(C)C)NC(=O)[C@H](CS)NC(=O)[C@@H](NC(=O)[C@H](CC(C)C)NC(=O)[C@H](C)NC(=O)[C@H](CCC(N)=O)NC(=O)[C@H](C)NC(=O)[C@H](CCCCN)NC(=O)[C@@H](NC(=O)[C@H](CCCCN)NC(=O)[C@H](CCC(N)=O)NC(=O)[C@H](Cc1ccccc1)NC(=O)CN)C(C)C)[C@@H](C)O)[C@@H](C)O)C(C)C)C(=O)N[C@@H](C)C(=O)O` [B18KL] (H-GFQKVKAQALTCLHTVMA-OH; N-terminus and C-terminus assumed), the half-inhibitory concentration (IC50) in the experiment with MCF7-G11-TR5, with MCF7, in the experiment with MDA-MB-231, in the experiment on ZR-75-1, with T47D and in the experiment on SKBR3 was above 128 µM each time. The IC50 with MCF7-G11-TR1 and with MDA-MB-468 was above 128 µM throughout.
Consider `CSCC[C@H](NC(=O)[C@@H](NC(=O)[C@@H](NC(=O)[C@H](Cc1c[nH]cn1)NC(=O)[C@H](CC(N)=O)NC(=O)[C@H](CS)NC(=O)[C@@H](NC(=O)[C@H](C)NC(=O)[C@H](C)NC(=O)[C@H](CCC(N)=O)NC(=O)[C@H](C)NC(=O)[C@H](CCCCN)NC(=O)[C@@H](NC(=O)[C@H](CCCCN)NC(=O)[C@H](CCC(N)=O)NC(=O)[C@H](Cc1ccccc1)NC(=O)CN)C(C)C)[C@@H](C)O)[C@@H](C)O)C(C)C)C(=O)N[C@@H](C)C(=O)O` [B18K] (H-GFQKVKAQAATCNHTVMA-OH; N-terminus and C-terminus assumed), for which the IC50 is above 131 µM in the experiment with MCF7-G11-TR5; above 131 µM with MCF7 (MCF7 (drug-sensitive), MTT); above 131 µM in the experiment on MDA-MB-231; above 131 µM with ZR-75-1; above 131 µM in the experiment on T47D; above 131 µM with MCF7-G11-TR1. The molecule also showed an IC50 in the experiment on MDA-MB-468 (MDA-MB-468 (Basal A), MTT) above 131 µM.
Take `CC(C)C[C@H](NC(=O)CN)C(=O)NCC(=O)N[C@@H](CCCCN)C(=O)N[C@@H](C)C(=O)N[C@@H](CC(C)C)C(=O)N[C@@H](C)C(=O)N[C@@H](CCCCN)C(=O)N[C@@H](C)C(=O)N[C@@H](CC(C)C)C(=O)N[C@@H](C)C(=O)N[C@@H](CS)C(=O)N[C@@H](CC(C)C)C(=O)N[C@@H](C)C(=O)N[C@@H](CCCCN)C(=O)N[C@@H](C)C(=O)N[C@@H](CC(C)C)C(=O)N[C@@H](C)C(=O)O` [B18L] (H-GLGKALAKALACLAKALA-OH): the IC50 in the experiment on MCF7-G11-TR5 worked out at 3.8 ± 0.3 µM; in the experiment on MCF7 it was 5.9 ± 0.5 µM; with MCF-10a it was 17.2 ± 6.4 µM; with MDA-MB-231, 7.2 ± 0.8 µM; with ZR-75-1, 5.2 ± 1 µM; in the experiment with T47D it was 17.5 ± 6.5 µM. The IC50 is 7.2 ± 1 µM in the experiment on SKBR3, 39.8 ± 3.8 µM in the experiment on PBMCs, 6.2 ± 0.8 µM with MCF7-G11-TR1 and 12.4 ± 1.4 µM in the experiment on MDA-MB-468.

B1: BST-2: recombinant BST-2 (MW = 5.832 kDa), extracellular domain, binding partner and control (protein, UniProt Q10589 49-161, looked up)
extracellular domain: NSEACRDGLRAVMECRNVTHLLQQELTEAQKGFQDVEAQAATCNHTVMALMASLDAEKAQGQKKVEELEGEITTLNHKLQDASAEVERLRRENQVLSVRIADKKYYPSSQDSS
modifications: extracellular domain
As for B1, in experiment [1], the in the flow-through worked out at 21% and the “retained on the apical side of the filter” value amounted to 78%.

For orientation: IC50 means the concentration needed to halve the response being measured. Read a low IC50 as inhibition by little substance.

(Values after PMC7563317, “Development of a Cationic Amphiphilic Helical Peptidomimetic (B18L) As A Novel Anti-Cancer Drug Lead” (Cancers, 2020).)
